Experimental data reported in ChEMBL document CHEMBL1201862, “PubChem BioAssay data set” (2004).
“And” between values parts separate entries of the source, which are not always exact repeats. Equal values may be shown once.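 Interpolation was linear, between the two tested concentrations surrounding the appropriate level; five concentrations were tested over 48 hours in 96-well plates. GI50 = concentration required for 50% inhibition of growth.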 The source made the active and inactive calls. Rule as the data show it: active = GI50 up to about 1.1 µM and inactive = higher.

Columns and labels:
Test in all cases: inhibition of tumour cell growth, NCI panel, 48 h
[1] = test system: MOLT-4
[2] = test system: SW-620
[3] = test system: SF-295
[4] = test system: OVCAR-8
[5] = test system: OVCAR-3
[6] = test system: MDA-MB-231
[7] = test system: SN12C
[8] = test system: HOP-62
[9] = test system: RXF 393
[10] = test system: UACC-257
[11] = test system: K562
[12] = test system: UO-31
[13] = test system: HCT-116
[14] = test system: SK-OV-3
[15] = test system: SK-MEL-2
[16] = test system: COLO 205
[17] = test system: NCI-H23
[18] = test system: NCI/ADR-RES
[19] = test system: A549
[20] = test system: LOX IMVI
[21] = test system: BT-549
[22] = test system: 786-0
[23] = test system: DU-145
[24] = test system: T47D
[25] = test system: CAKI-1
[26] = test system: Hs-578T
[27] = test system: SNB-75
[28] = test system: PC-3
[29] = test system: MCF7
[30] = test system: HCC 2998
[31] = test system: SK-MEL-28
[32] = test system: OVCAR-4
[33] = test system: HCT-15
[34] = test system: RPMI-8226
[35] = test system: SNB-19
[36] = test system: MDA-N
[37] = test system: NCI-H460
[38] = test system: UACC-62
[39] = test system: OVCAR-5
[40] = test system: ACHN
[41] = test system: M14
[42] = test system: A498
[43] = test system: NCI-H226
[44] = test system: MDA-MB-435
[45] = test system: SF-268
[46] = test system: U-251
[47] = test system: KM12
[48] = test system: TK-10
[49] = test system: CCRF-CEM
[50] = test system: SF-539
[51] = test system: HOP-92
[52] = test system: IGROV-1
[53] = test system: HT-29
[54] = test system: SK-MEL-5
[55] = test system: HL-60
[56] = test system: EKVX
[57] = test system: NCI-H522
[58] = test system: Malme-3M

## CO[C@]12C#CC=CC#C[C@@H](O)[C@]3(CCC1)O[C@@]23c1cccc(O)c1
[1]
  GI50: 54.8 µM (inactive)
[2]
  GI50: > 100 µM (inactive)
[3]
  GI50: > 100 µM (inactive)
[4]
  GI50: > 100 µM (inactive)
[5]
  GI50: > 100 µM (inactive)
[6]
  GI50: > 100 µM (inactive)
[7]
  GI50: > 100 µM (inactive)
[8]
  GI50: 79.3 µM (inactive)
[9]
  GI50: > 100 µM (inactive)
[10]
  GI50: > 100 µM (inactive)
[11]
  GI50: 97.3 µM (inactive)
[12]
  GI50: > 100 µM (inactive)
[13]
  GI50: > 100 µM (inactive)
[14]
  GI50: > 100 µM (inactive)
[15]
  GI50: > 100 µM (inactive)
[16]
  GI50: > 100 µM (inactive)
[17]
  GI50: > 100 µM (inactive)
[18]
  GI50: > 100 µM (inactive)
[19]
  GI50: > 100 µM (inactive)
[20]
  GI50: > 100 µM (inactive)
[21]
  GI50: > 100 µM (inactive)
[22]
  GI50: > 100 µM (inactive)
[23]
  GI50: > 100 µM (inactive)
[24]
  GI50: > 100 µM (inactive)
[25]
  GI50: > 100 µM (inactive)
[26]
  GI50: > 100 µM (inactive)
[27]
  GI50: > 100 µM (inactive)
[28]
  GI50: > 100 µM (inactive)
[29]
  GI50: > 100 µM (inactive)
[30]
  GI50: > 100 µM (inactive)
[31]
  GI50: > 100 µM (inactive)
[32]
  GI50: > 100 µM (inactive)
[33]
  GI50: > 100 µM
[34]
  GI50: > 100 µM (inactive)
[35]
  GI50: 51.3 µM (inactive)
[36]
  GI50: > 100 µM (inactive)
[37]
  GI50: > 100 µM (inactive)
[38]
  GI50: 52.6 µM (inactive)
[39]
  GI50: > 100 µM (inactive)
[40]
  GI50: > 100 µM (inactive)
[41]
  GI50: > 100 µM (inactive)
[42]
  GI50: > 100 µM (inactive)
[43]
  GI50: > 100 µM (inactive)
[44]
  GI50: > 100 µM (inactive)
[45]
  GI50: > 100 µM (inactive)
[46]
  GI50: > 100 µM (inactive)
[47]
  GI50: > 100 µM (inactive)
[48]
  GI50: > 100 µM (inactive)

## c1ccc2[nH]c(-c3cscn3)nc2c1 [THIABENDAZOLE]
[1]
  GI50: > 100 µM (inactive)
[2]
  GI50: > 100 µM (inactive)
[3]
  GI50: > 100 µM (inactive)
[4]
  GI50: > 100 µM (inactive)
[5]
  GI50: > 100 µM (inactive)
[6]
  GI50: > 100 µM (inactive)
[7]
  GI50: > 100 µM (inactive)
[10]
  GI50: > 100 µM (inactive)
[11]
  GI50: > 100 µM (inactive) and 83.6 µM (inactive)
[13]
  GI50: > 100 µM (inactive)
[14]
  GI50: > 100 µM (inactive)
[49]
  GI50: > 100 µM (inactive)
[15]
  GI50: > 100 µM (inactive)
[16]
  GI50: > 100 µM (inactive)
[17]
  GI50: > 100 µM (inactive)
[18]
  GI50: > 100 µM (inactive)
[19]
  GI50: > 100 µM (inactive)
[50]
  GI50: > 100 µM (inactive)
[20]
  GI50: > 100 µM (inactive)
[21]
  GI50: > 100 µM (inactive)
[22]
  GI50: > 100 µM (inactive)
[23]
  GI50: > 100 µM (inactive)
[24]
  GI50: > 100 µM (inactive)
[26]
  GI50: > 100 µM (inactive)
[51]
  GI50: > 100 µM (inactive)
[52]
  GI50: > 100 µM (inactive)
[53]
  GI50: > 100 µM (inactive) and 77.1 µM (inactive)
[27]
  GI50: > 100 µM (inactive)
[28]
  GI50: > 100 µM (inactive)
[29]
  GI50: > 100 µM (inactive)
[54]
  GI50: > 100 µM (inactive)
[30]
  GI50: > 100 µM (inactive)
[31]
  GI50: > 100 µM (inactive)
[55]
  GI50: > 100 µM (inactive)
[32]
  GI50: > 100 µM (inactive)
[33]
  GI50: > 100 µM
[35]
  GI50: > 100 µM (inactive)
[36]
  GI50: 50.4 µM (inactive)
[37]
  GI50: > 100 µM (inactive) and 54 µM (inactive)
[38]
  GI50: > 100 µM (inactive)
[39]
  GI50: > 100 µM (inactive)
[40]
  GI50: > 100 µM (inactive)
[41]
  GI50: > 100 µM (inactive)
[42]
  GI50: > 100 µM (inactive)
[43]
  GI50: > 100 µM (inactive)
[56]
  GI50: > 100 µM (inactive)
[57]
  GI50: > 100 µM (inactive)
[44]
  GI50: 74.3 µM (inactive) and 44.4 µM (inactive)
[45]
  GI50: > 100 µM (inactive)
[46]
  GI50: > 100 µM (inactive)
[58]
  GI50: > 100 µM (inactive)
[47]
  GI50: > 100 µM (inactive)
[48]
  GI50: > 100 µM (inactive)
